How the values were obtained:
Plasmodium falciparum [1] = experiment: NOVARTIS: Inhibition of Plasmodium falciparum 3D7 (drug-susceptible) proliferation in erythrocyte-based infection assay; type: functional, organism-based; settings: Plasmodium falciparum, 3D7
Plasmodium falciparum [2] = experiment: NOVARTIS: Inhibition of Plasmodium falciparum W2 (drug-resistant) proliferation in erythrocyte-based infection assay; type: functional, organism-based; settings: Plasmodium falciparum, W2; read-out: EC50
[3] = NOVARTIS: Cytotoxicity against human hepatocellular carcinoma cell line (Huh7); type: toxicity, cell-based, Huh-7; settings: Huh7 cells (hepatocellular carcinoma cell line)

Row | Compound | EC50 (Plasmodium falciparum [1]) | EC50 (Plasmodium falciparum [2]) | CC50 [3]
1 | CCN(CC)CCNc1ccc(Nc2ccnc3cc4ccccc4cc23)cc1 | 28.2 nM | 41.7 nM | 2360 nM
2 | Nc1ccc2nc(C=Cc3ccc(Cl)cc3)[nH]c2c1 | 580 nM | 122 nM | 6900 nM
3 | c1ccc2cc3c(Nc4ccc(N5CCCCC5)cc4)ccnc3cc2c1 | 743 nM | 1220 nM | 67700 nM
4 | O=C(C1CCN(c2nnnn2-c2ccccc2)CC1)N1CCc2ccccc2C1 | 1300 nM | 1790 nM | > 100000 nM
5 | CCN1CCC(NCCC(c2ccccc2)c2ccccc2)CC1 | 280 nM | 66 nM | 3610 nM
6 | N#Cc1ccccc1N1CCCCC1 | > 10800 nM | 1790 nM | > 100000 nM
7 | COc1cc2nc(N3CCN(c4nc(N)c5cc(OC)c(OC)cc5n4)CC3)nc(N)c2cc1OC | 91.1 nM | 257 nM | 14700 nM
8 | O=c1c2ccccc2[nH]c2cc(Cl)ccc12 | 95.5 nM | 178 nM | > 10000 nM
9 | OCCSc1nc(-c2ccccc2)nc2ccc(F)cc12 | > 1250 nM | > 183 nM | > 10000 nM
10 | Cc1cc(C)cc(NCC(O)Cn2c3ccc(Cl)cc3c3cc(Cl)ccc32)c1 (stereo not given) | 2220 nM | 569 nM | 31200 nM
11 | COCCSc1nc2sc3c(c2c(=O)n1-c1ccc(OC)cc1)CCN(C)C3 | 3020 nM | 1770 nM | > 100000 nM
12 | C=CCSc1ncc(-c2ccc(Cl)cc2)n1C | > 12500 nM | 1770 nM | > 100000 nM
13 | Oc1ccc(Cl)cc1CNc1nc2ccccc2[nH]1 | 921 nM | 768 nM | 43500 nM
14 | O=C(Nc1ccc(-c2nc3ccccc3[nH]2)cc1)c1ccc(Cl)c(Cl)c1 | 523 nM | 1820 nM | > 100000 nM
15 | Cc1cc(C)c(NC(=S)N(CCCN2CCCCC2)Cc2cccs2)c(C)c1 | > 1540 nM | 179 nM | > 10000 nM
16 | O=C1c2ccc3c4c(ccc(c24)C(=O)N1CCCCO)C(=O)N(CCCCO)C3=O | 354 nM | 77.4 nM | 4380 nM
17 | CC1(C)N=C(N)N=C(N)N1c1ccc(Oc2ccc(Cl)cc2)c(Cl)c1 | 58 nM | 628 nM | 35100 nM
18 | CCCS(=O)(=O)c1c(S(=O)(=O)CCC)c2ccc(C(C)=O)cn2c1C(=O)c1ccc(C)cc1 | > 12500 nM | 1830 nM | > 100000 nM
19 | C=CCn1c(SCC(=O)Nc2ccccc2C)nc2sc(C)cc2c1=O | 4280 nM | 1800 nM | > 100000 nM
20 | CCOC(=O)c1ccc(NC(=O)c2ccc3nc(NC(=O)c4ccc(C(=O)OC)cc4)sc3c2)cc1 | > 6510 nM | 1800 nM | > 100000 nM
21 | COc1ccc(NC(=O)Cn2c(C)c(C=O)c3ccccc32)cc1 | 1450 nM | 1770 nM | > 100000 nM
22 | O=C(NC(CN1CCCC1)c1ccccc1)C1CCN(S(=O)(=O)c2ccc(Cl)cc2)CC1 (stereo not given) | 160 nM | 648 nM | 36800 nM
23 | CCN1CCN(CCCNC(=S)Nc2ccc3nc(N4CCCC4)cc(C)c3c2)CC1 | 256 nM | 773 nM | 44200 nM
24 | Cc1n(N)c2ccccc2[n+]1CC(=O)c1ccccc1 | 2900 nM | 1750 nM | > 100000 nM

Row | Compound | EC50 (Plasmodium falciparum [1]) | EC50 (Plasmodium falciparum [2]) | CC50 [3]
25 | CCCCCCCCC(=O)N(C)CCCNc1ccnc2cc(Cl)ccc12 | 321 nM | 196 nM | > 10700 nM
26 | CN(C)c1ccc(C=C2SC(=N)N(c3nccs3)C2=O)cc1 | 5050 nM | 1830 nM | > 100000 nM
27 | O=C(Nc1ccc(Br)cc1C(=O)c1ccccc1)c1cc2nc(-c3cccs3)cc(C(F)(F)F)n2n1 | > 12500 nM | 1760 nM | > 100000 nM
28 | COC(=O)CNC(c1ccccc1Cl)c1cc(Br)ccc1NS(=O)(=O)c1ccc(C)cc1 (stereo not given) | 1920 nM | 1760 nM | > 100000 nM
29 | Cc1cc(NC(c2cccc(Br)c2)c2ccc3cccnc3c2O)no1 (stereo not given) | 267 nM | 400 nM | > 22800 nM
30 | CCCCN1C(=O)/C(=C2/Sc3ccccc3N2C)SC1=Nc1cc(C)ccc1C | > 581 nM | > 175 nM | > 10000 nM
31 | N=c1n(CCN2CCCCC2)c2ccccc2n1CC(O)c1ccc(Cl)c(Cl)c1 (stereo not given) | 52.8 nM | 224 nM | 12800 nM
32 | C[n+]1cccc2ccc3cccnc3c21 | 66.4 nM | 140 nM | > 8030 nM
33 | COc1ccc(-c2n(CC(=O)OC3CC(C)CCC3C(C)C)c3ccccc3[n+]2C)cc1 (stereo not given) | 391 nM | 233 nM | 13400 nM
34 | OC(Cn1nnc2ccccc21)Cn1c2ccc(Br)cc2c2cc(Br)ccc21 (stereo not given) | 3370 nM | 1350 nM | > 78000 nM
35 | COc1cc(-c2nc(-c3cccc(Cl)c3)c(-c3ccccc3)[nH]2)cc(OC)c1O | 583 nM | 749 nM | 43200 nM
36 | CC(C)CC(NC(=O)C(=Cc1ccco1)NC(=O)c1ccccc1)C(=O)OCc1ccccc1 (stereo not given) | > 12500 nM | 1730 nM | > 100000 nM
37 | C=CCn1c(SCC(=O)c2cc(C)n(-c3ccccc3F)c2C)nc2sc3c(c2c1=O)CCCC3 | > 1250 nM | > 180 nM | > 10000 nM
38 | CCOC(=O)C1(CC2CCCCO2)CCN(Cc2cccc(C)n2)CC1 (stereo not given) | > 8370 nM | 1780 nM | > 100000 nM
39 | COc1ccc2c(c1)C(=NN=C(N)N)c1cc(OC)ccc1-2 | 123 nM | 178 nM | > 10000 nM
40 | CC1CCCCN1CCCN(Cc1c2ccccc2cc2ccccc12)C(=O)c1ccccc1Cl (stereo not given) | 878 nM | 31.2 nM | > 1740 nM
41 | O=C(Nc1cccc(C2=NCCN2)c1)c1ccc(C(=O)Nc2cccc(C3=NCCN3)c2)cc1 | 599 nM | 178 nM | > 10000 nM
42 | COc1cc2nc(Nc3cccc(F)c3)nc(N)c2cc1OC | 148 nM | 358 nM | 20100 nM
43 | O=C(Nc1cnc2ccccc2c1)c1cccc(-n2cnnn2)c1 | 174 nM | 182 nM | > 10000 nM
44 | Cc1nc2ccc(NC(=O)C3CC3)cc2c(=O)n1Cc1ccc(Cl)cc1 | 1170 nM | 1820 nM | > 100000 nM
45 | Oc1ccc(Br)c(C(Nc2ccccn2)c2ccc3cccnc3c2O)c1 (stereo not given) | 555 nM | 281 nM | 15700 nM
46 | CCCCCCN(C(=O)c1cccc(OC)c1)C(CC)c1nc2ccccc2c(=O)n1-c1ccc(Cl)cc1C (stereo not given) | 1120 nM | > 178 nM | > 10000 nM
47 | COC(=O)C1=C(C)NC2=C(C(=O)c3ccccc32)C1c1ccc(OCC#N)c(OC)c1 (stereo not given) | 590 nM | 1530 nM | 84900 nM
48 | Cc1cc2c(cc1C)NC(c1ccccc1F)C1=C(CC(C)(C)CC1=O)N2 (stereo not given) | 1650 nM | 1790 nM | > 100000 nM

Row | Compound | EC50 (Plasmodium falciparum [1]) | EC50 (Plasmodium falciparum [2]) | CC50 [3]
49 | C[N+](C)(C)c1nc(N2CCOCC2)nc(N(c2ccccc2)c2ccccc2)n1 | 63.2 nM | 179 nM | > 10000 nM
50 | Cc1nc2ccccn2c1C1(O)C(=O)Nc2c(Cl)cc(Cl)cc21 (stereo not given) | 449 nM | 178 nM | > 10000 nM
51 | CC(=O)N(C1=C(N(C)C)C(=O)c2ccccc2C1=O)c1ccc(F)c(F)c1 | 16.1 nM | 41.1 nM | 2360 nM
52 | O=[N+]([O-])c1ccc(NCCNc2nc(N3CCCC3)nc3ccccc23)cc1 | 564 nM | 334 nM | 19200 nM
53 | CSc1ccc(NC(=O)N2CCCn3cccc3C2c2ccc(C(F)(F)F)cc2)cc1 (stereo not given) | 3990 nM | 1810 nM | > 100000 nM
54 | CC12CN(Cc3ccccc3)CC(C)(CN(Cc3cccc(Br)c3)C1)C2 | 3620 nM | 819 nM | 47200 nM
55 | c1ccc(-c2c3c(cc4ccccc24)C[N+]2(CCCC2)C3)cc1 | 1340 nM | 1730 nM | > 100000 nM
56 | COc1ccc(C(C)=O)cc1N1C(=O)C2C(C1=O)C1(c3ccccc3)C(=O)C2(c2ccccc2)C(c2ccc(C)cc2)=C1c1ccc(C)cc1 (stereo not given) | 2460 nM | 1800 nM | > 100000 nM
57 | CC(=O)Nc1ccc(S(=O)(=O)NC2C(C)(C)C3CC[C@]2(C)C3)cc1 (stereo not given in full) | > 1250 nM | > 184 nM | > 10000 nM
58 | CCOC(=O)CCC(=O)Oc1cc(C(C)(C)C)nn1-c1ccc(Cl)c(Cl)c1 | > 1230 nM | 203 nM | > 11100 nM
59 | Cc1ccc(C2C3=C(CC(C)(C)CC3=O)N(Cc3ccc4c(c3)OCO4)C3=C2C(=O)CC(C)(C)C3)cc1 | 3750 nM | 1770 nM | > 100000 nM
60 | CCOc1ccc(C(=O)C(C)[n+]2cc(-c3ccc(OC)cc3)n3c2CCC3)cc1 (stereo not given) | 506 nM | 595 nM | 33200 nM
61 | C=CCc1c(C)nc2ccc(Br)cc2c1O | 1600 nM | 1780 nM | > 100000 nM
62 | CCOC(=O)CCC(=O)Oc1ccccc1-c1nc2ccccn2c1NC(C)(C)CC(C)(C)C | 1060 nM | 178 nM | > 10000 nM
63 | c1ccc(Oc2cccc(CN3CCc4nc(N5CCCCC5)sc4C3)c2)cc1 | 294 nM | 173 nM | > 10000 nM
64 | Cc1ncc(CCCCN(C)C)c2c1[nH]c1ccccc12 | 472 nM | 325 nM | 18800 nM
65 | Cc1cccc(N2C(N)=NC(N)=NC2(C)C)c1 | 20.2 nM | 52.8 nM | 2980 nM
66 | COc1ccc(OC)c(C(C(=O)NC2CCCC2)N(C(=O)c2snc(C(N)=O)c2N)c2ccccc2OC)c1 (stereo not given) | 2540 nM | 1790 nM | > 100000 nM
67 | CC(Nc1ccccc1)C(=O)Nc1cc(C(F)(F)F)ccc1Cl (stereo not given) | 1220 nM | 1290 nM | 71400 nM
68 | Cc1cccc(-c2nc3cc(NC(=S)NC(=O)c4ccc(Cl)cc4)ccc3o2)c1 | > 1660 nM | 183 nM | > 10000 nM
69 | O=C(c1ccncc1)N1CCN(Cc2ccc3c(c2)OCO3)CC1 | 964 nM | 176 nM | > 10000 nM
70 | CC(Cc1ccccc1)NCCCCCCCNC(C)Cc1ccccc1 (stereo not given) | 268 nM | 105 nM | 5900 nM

— ChEMBL document CHEMBL1156829 (Proc Natl Acad Sci U S A, 2008)
